Values quoted from earlier work in US6764693B1, “Free radical quenching composition and a method to increase intracellular and/or extracellular antioxidants” (Amaox, Ltd., priority 1992, dated 2004).

What was measured:
T lymphocytes = settings: activated leukocytes combined with T lymphocytes
[1] = oxidants from activated leukocytes
[2] = separate experimental protocols
[3] = antioxidant placed in liposomes
[4] = test system: HIV in U1 cell line (promonocytes); settings: increasing thiol concentration in culture medium of U1 cells
[5] = pH of 1.0
[6] = free GSH, intravenous

**Q.** With catalase as the molecule, how does the “suppression of lymphocytic function” value (T lymphocytes) read?
**A.** no suppression of lymphocytic function

**Q.** What about the “effect on lipid peroxidation of liposomes” value [1] of the same molecule?
**A.** inhibited peroxidation

**Q.** With `Cc1c(C)c2c(c(C)c1O)CCC(C)(CCCC(C)CCCC(C)CCCC(C)C)O2` (stereo not drawn) [vitamin E, alpha-tocopherol] as the molecule, how does the mortality [2] read?
**A.** 46%

**Q.** What about the “effect on lipid peroxidation in liposomes exposed to uv” value [3] of the same molecule?
**A.** inhibited

**Q.** What about the “effect on lipid peroxidation of liposomes” value [1] of the same molecule?
**A.** conferred protection against lipid peroxidation

**Q.** For `CC(C)(C)/[N+]([O-])=C/c1ccccc1` [PBN, phenyltertylnitrone], which mortality [2] is on record?
**A.** 42%

**Q.** What does the source list for beta carotene [beta-carotene]?
**A.** effect on lipid peroxidation in liposomes exposed to uv [3]: inhibited; effect on lipid peroxidation of liposomes [1]: conferred protection against lipid peroxidation

**Q.** For glutathione ester [GSE], which “effect on HIV” value [4] is on record?
**A.** suppression of viral assembly, HIV reverse transcriptase production and viral replication

**Q.** What does the source list for `CC(=O)N[C@@H](CS)C(=O)O` [NAC, N-acetyl-cysteine]?
**A.** effect on HIV [4]: suppression of viral assembly, HIV reverse transcriptase production and viral replication; rate constant K2 against the hydroxyl radical [5]: 1.36×10^10

**Q.** With `N[C@@H](CCC(=O)N[C@@H](CS)C(=O)NCC(=O)O)C(=O)O` [glutathione] as the molecule, how does the “effect on HIV” value [4] read?
**A.** suppression of viral assembly, HIV reverse transcriptase production and viral replication

**Q.** And the mortality [2]?
**A.** 100%

**Q.** What about the t½ [6] of the same molecule?
**A.** approximately 1.6 minutes

**Q.** What about the “rate constant K2 against the hydroxyl radical” value [5] of the same molecule?
**A.** 8.8×10^9
